Assay results as given in article PMC7307922 (Journal of Medicinal Chemistry, 2020).
Residue numbers refer to the chain shown, from its start. ≈ marks a conversion by molar mass, not a printed value. Where “and” joins values, the source holds several entries; their conditions need not be identical. Equal entries are not always repeated.

Tests used:
hFFA3 [1] = biological target: T1, hFFA3 (Homo sapiens, UniProt O14843); experiment: biochemical; conditions: for GTPγS pEC50: hFFA3, mean of ≥3 independent experiments ± standard error
T1 sequence (O14843 1-346): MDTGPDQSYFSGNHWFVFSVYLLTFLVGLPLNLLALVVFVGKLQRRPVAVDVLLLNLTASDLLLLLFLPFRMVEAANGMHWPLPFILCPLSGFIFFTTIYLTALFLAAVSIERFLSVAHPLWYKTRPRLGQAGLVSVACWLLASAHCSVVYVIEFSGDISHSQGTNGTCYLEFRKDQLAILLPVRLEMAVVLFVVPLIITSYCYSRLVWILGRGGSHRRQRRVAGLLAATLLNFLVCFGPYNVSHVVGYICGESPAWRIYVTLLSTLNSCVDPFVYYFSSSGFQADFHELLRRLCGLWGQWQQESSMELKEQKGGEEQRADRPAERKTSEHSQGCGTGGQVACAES
Description: The ligands were initially screened in a human FFA3-dependent [^35S]GTPγS binding assay as this assay reflects receptor-mediated activation of Gi/o proteins and is known to generally correlate well with ligand affinity.[30] Analogues of particular interest were tested further in a cAMP inhibition assay as this is an important downstream effect of Gi-activation. […] It is furthermore performed in whole cells, is more downstream, includes G protein signal amplification, and therefore better reflects a more natural ligand–receptor response.
Membranes were isolated from Flp-In T-REx HEK293 cells treated with 100 ng/mL doxycycline to induce receptor expression. Cells were washed with ice-cold phosphate-buffered saline and removed from dishes by scraping before being centrifuged for 5 min at 4 °C, 3000 rpm. Pellets were resuspended in TE buffer (75 mM Tris–HCl, 5 mM EDTA; pH 7.5) with the addition of a protease inhibitor mixture (Roche Applied Science, West Sussex, UK). This was then homogenized with a 5 mL hand-held homogenizer and subsequently centrifuged at 1500 rpm for 5 min at 4 °C, from which the supernatant was collected and further centrifuged at 50 000 rpm for 30 min at 4 °C. The resulting pellet was resuspended in TE buffer, and the protein content was measured using a BCA protein assay kit (Pierce, Fisher Scientific, Loughborough, UK).
Reactions were initiated with the addition of [^35S]GTPγS at 50 nCi per tube; reactions were terminated after 1 h of incubation at 25 °C by rapid filtration through GF/C glass filters using a 24-well Brandel cell harvester (Alpha Biotech, Glasgow, UK). Unbound radioligand was removed from filters by washing three times with ice-cold wash buffer (50 mM Tris–HCl, pH 7.4, and 10 mM MgCl2), and [^35S]GTPγS binding was determined by liquid scintillation spectrometry.

hFFA3 [2] = biological target: T1, hFFA3; set-up: expressed in transfected cells; host or cells: Flp-In T-REx HEK293 (membranes); method as in PMID 24870406; conditions: previously characterized; cited from earlier work
[3] = Kinetic aqueous solubility in PBS pH 7.4; assay type: physicochemical; conditions: phosphate buffered saline, pH 7.4; read-out: Aq. solub.
Description: (§1) Solubility and log D7.4 measurements were performed in accordance to the previously published procedures.[35]

log D7.4 measurement = assay type: physicochemical; conditions: pH 7.4; read-out: logD7.4
Description: as §1

[4] = Stability toward mouse liver microsomes; conditions: remaining after 40 min incubation with MLMs
Description: The study was performed by Bienta (www.bienta.net). Mouse hepatic microsomes were isolated from pooled and perfused livers of male BALB/c mice (n = 50). Isolation was performed according to the standard protocol.[36]
Microsomal incubations were carried out in 96-well plates in 5 aliquots of 40 μL each (one for each time point). Liver microsomal incubation medium comprised PBS (100 mM, pH 7.4), MgCl2 (3.3 mM), NADPH (3 mM), glucose-6-phosphate (5.3 mM), and glucose-6-phosphate dehydrogenase (0.67 units/mL) with 0.42 mg of liver microsomal protein per ml. In the control reactions, the NADPH-cofactor system was substituted with PBS. […] Each reaction was performed in duplicates. Five time points over 40 min were analyzed. The reactions were stopped by adding 12 volumes of 90% acetonitrile–water to incubation aliquots, followed by protein sedimentation by centrifuging at 5500 rpm for 3 min. […]. Supernatants were analyzed using HPLC-MS/MS on an API 3000 PE instrument.

hFFA3 [5] = biological target: T1, hFFA3; experiment: cell-based; conditions: for Emax: HEK293, read-out: cAMP Emax; for cAMP pEC50: hFFA3, compound alone, mean of ≥3 independent experiments ± standard error
Method in brief: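 HEK293 Flp-In T-REx cells stably carrying FFA3-eYFP, expression induced overnight with doxycycline, 3000 cells/well; compounds co-incubated 1 h to inhibit 0.3 μM forskolin-induced cAMP, read with HTRF cAMP kit.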

hFFA3 Q131A = biological target: T2, hFFA3 Q131A (Homo sapiens, UniProt O14843, Q131A); experiment: Potency at FFA3 mutant Q131A; assay type: cell-based
T2 sequence (O14843 1-346 Q131A): T1 sequence (O14843 1-346) with Q131A
Description: (§2) The previously published compound 1 was not affected by mutation of either R185A or R258A in the orthosteric binding site, and the compounds were therefore believed to be allosteric modulators. […] After the publication of the FFA1 crystal structure in complex with an allosteric agonist located in the TM region close to the intracellular site,[32] a homology model of hFFA3 was constructed using Modeller. […] Thus, additional docking of (R)-1 in this site were performed to find poses where Q131, but not R126, show a central role in binding. […] The narrow binding cavity around the core scaffold is in agreement with the restrained SAR observed for this series and the furan moiety pointing out of the binding cavity might explain the flexibility in substituents at this site (Figure 3c,d). Although Q131A impacts the potency of (R)-1 with high significance, the magnitude of the effect is lower than what would be generally expected for the removal of a hydrogen bond interaction; thus, additional studies are required to confirm the proposed binding site.

hFFA3 E112A = biological target: T3, hFFA3 E112A (Homo sapiens, UniProt O14843, E112A); experiment: Potency at FFA3 mutant E112A; assay type: cell-based
T3 sequence (O14843 1-346 E112A): T1 sequence (O14843 1-346) with E112A
Description: as §2

hFFA3 R126A = biological target: T4, hFFA3 R126A (Homo sapiens, UniProt O14843, R126A); experiment: Potency at FFA3 mutant R126A; assay type: cell-based
T4 sequence (O14843 1-346 R126A): T1 sequence (O14843 1-346) with R126A
Description: as §2

[6] = efficacy relative to maximal response of propionate

Compound | GTPγS pEC50 (hFFA3 [1]) | solubility [3] | logD at 24 h (log D7.4 measurement) | MLM (%) remaining [4] | Emax (hFFA3 [5]) | cAMP pEC50 (hFFA3 [5]) | effect of mutation E112A on potency (hFFA3 E112A) | effect of mutation R126A on potency (hFFA3 R126A) | other results
CC1=C(C(=O)Nc2ccccc2C)C(c2ccccc2Br)C2=C(CCCC2=O)N1 (stereo not drawn) [Compound 5] | nr^e | – | – | – | – | – | – | – | activity alone and with propionate (hFFA3 [2]): inactive alone but to act as a PAM of propionate
CC1=C(C(=O)Nc2cc(Cl)ccc2Cl)C(C2CC2)C2=C(CCCC2=O)N1 (stereo not drawn) [Compound 62, 4-Cyclopropyl-N-(2,5-dichlorophenyl)-2-methyl-5-oxo-1,4,5,6,7,8-hexahydroquinoline-3-carboxamide] | – | 5 µM (≈ 1.96 µg/mL) | 3.73 | 1−2% and 1% | – | – | – | – | –
CC1=C(C(=O)Nc2cc(Cl)ccc2Cl)C(c2ncco2)C2=C(CCCC2=O)N1 (stereo not drawn) [Compound 51, N-(2,5-Dichlorophenyl)-2-methyl-4-(oxazol-2-yl)-5-oxo-1,4,5,6,7,8-hexahydroquinoline-3-carboxamide] | – | 1 µM (≈ 0.418 µg/mL) | 2.59 | 12% | 95% | 6.72 ± 0.05 | – | – | –
CC1=C(C(=O)Nc2ccccc2C)[C@H](c2ccco2)C2=C(CCCC2=O)N1 [(R)-1] | – | – | – | – | – | – | did not affect | did not affect | EC50 (hFFA3 [5]): 295 nM; reduction of potency by mutation Q131A (hFFA3 Q131A; p < 0.001): > 3 fold
propionate [Compound C3, reference compound] | 4.97 ± 0.08 | – | – | – | – | 4.93 ± 0.10 | did not affect | did not affect | GTPγS Emax (hFFA3 [1]; [6]): 100; cAMP Emax (hFFA3 [5]; [6]): 100; effect of mutation Q131A on potency (hFFA3 Q131A): did not affect
CCCC1C(C(=O)Nc2ccccc2C)=C(C)NC2=C1C(=O)CCC2 (stereo not drawn) [Compound 35, 2-Methyl-5-oxo-4-propyl-N-(o-tolyl)-1,4,5,6,7,8-hexahydroquinoline-3-carboxamide] | – | 199 µM (≈ 67.4 µg/mL) | – | 23% | 101% | 5.92 ± 0.01 | – | – | PAM pEC50 (hFFA3 [5]; cAMP assay in the presence of 1 μM propionate): 6.16 ± 0.10; logD (log D7.4 measurement): 2.64
